According to patent US20120270807A1, “MACROCYCLIC INHIBITORS OF SERINE PROTEASE ENZYMES” (priority 2009, published 2012):

Target: human matriptase (Homo sapiens, UniProt Q9Y5Y6)
Assay: Assay for inhibition of matriptase (fluorogenic substrate Boc-Gln-Ala-Arg-AMC)
Format: biochemical
Conditions: residual matriptase activity in presence of test compound; hydrolysis of Boc-Gln-Ala-Arg-AMC; 10 μM for initial screening per method
From the text: The following describes an assay for matriptase as a representative serine protease and is based upon reported methods. (Désilets, A.; Longpré, J.-M.; Beaulieu, M.-E.; Leduc, R. FEBS Lett. 2006, 580, 2227-2232.) Similar assays are applicable and available for other serine proteases.
Enzyme activities were monitored by measuring the release of fluorescence from AMC-coupled peptides (excitation, 360 nm; emission, 441 nm) in a FLX-800 TBE microplate reader (Bio-Tek Instruments, Winooski, Vt., USA). The purified human matriptase was active site titrated with the burst titrant 4-methylumbelliferyl-p-guanidino benzoate (MUGB). Enzymatic assays with matriptase were performed in Tris-HCl 100 mM containing 500 µg/mL BSA at pH 9. Human soluble furin was expressed, purified, titrated and assayed as described in the literature (Denault, J. B.; Lazure, C.; Day, R; Leduc, R. Protein Expr. Purif. 2000, 19, 113-124.) The purified HAT protein was active-site titrated with MUGB. Assays with HAT were performed in 50 mM Tris-HCl at pH 8.6.
Enzymes were diluted to concentrations ranging from 4 to 12.5 nM for furin, from 2 to 7 nM for matriptase and 20 pM for HAT and incubated with either 10 μM (for initial screening) […] or appropriate dilutions (for kinetic analysis), for example 0, 500, 1000, 2000 nM or 0, 250, 500, 1000, 2500, 5000 nM, of the test compound for 15 min at RT. Residual enzyme activity was measured by following the hydrolysis of a fluorogenic substrate (4 μM Boc-Arg-Val-Arg-Arg-AMC for furin, Boc-Gln-Ala-Arg-AMC for matriptase and 4 μM Boc-Val-Pro-Arg-AMC for HAT) (Bachem Bioscience, King of Prussia, Pa., USA). Saturation curves were performed in the presence of increasing concentrations of test compounds. Data from three independent experiments or more were typically averaged and residual velocities were plotted as a function of test compound concentration. Data were fitted by non-linear regression analysis to Equation (1) (Bieth, J. G. Methods Enzymol. 1995, 248, 59-84.) using the Enzfitter software (Biosoft, Ferguson, Mo., USA).
vi/v0=1−{([E]0+[I]0+Ki(app))−(([E]0+[I]0+Ki(app))^2−4[E]0[I]0)^1/2}/2[E]0 Equation (1): […]
where v0 and vi are the steady-state rates of substrate hydrolysis in the absence and presence of inhibitor, respectively, [E]0, the initial concentration of enzyme, [I]0, the initial concentration of inhibitor and Ki(app) the substrate-dependent equilibrium dissociation constant. The substrate-independent constant Ki was calculated using Equation (2) (Bieth, J. G. Methods Enzymol. 1995, 248, 59-84.),
Ki=Ki(app)(1+[S]0/Km) Equation (2): […]
The table presents results for matriptase inhibition for representative compounds of the invention.
Ki's can be calculated from the velocity using nonlinear regression analysis. The model used is a competitive enzyme inhibition equation where KmObs=Km*(1+[I]/Ki) and Y=Vmax*X/(KmObs+X). X is the substrate concentration. Y the velocity.

human matriptase, sequence (Q9Y5Y6 615-855 limits assumed, other chains not shown): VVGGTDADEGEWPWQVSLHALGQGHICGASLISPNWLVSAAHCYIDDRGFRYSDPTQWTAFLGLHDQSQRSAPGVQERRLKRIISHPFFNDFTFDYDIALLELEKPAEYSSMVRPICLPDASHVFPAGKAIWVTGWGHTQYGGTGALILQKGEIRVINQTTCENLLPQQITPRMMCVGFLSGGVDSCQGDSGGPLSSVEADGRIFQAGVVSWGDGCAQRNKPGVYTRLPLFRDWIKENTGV

Compound	Velocity (FU/min)
C[C@@H]1CN[C@@H](C2CC2)C(=O)N(C)[C@H](C)C(=O)N[C@H](Cc2ccc(C(=N)N)cc2)C(=O)NCCCc2ccccc2O1 [Compound 459]	140
C[C@@H]1NCCOc2cc(F)ccc2CCCNC(=O)[C@@H](Cc2ccc(C(=N)N)cc2)NC(=O)[C@@H](C)N(C)C1=O [Compound 467]	2300
C[C@@H]1C(=O)N[C@H](Cc2ccc(C(=N)N)cc2)C(=O)NC/C=C/c2cccc(c2)OCCN[C@@H](C2CC2)C(=O)N1C [Compound 482]	2500
C[C@@H]1C(=O)N[C@H](CCCN)C(=O)NCCCc2ccc(F)cc2OCCN[C@@H](C2CC2)C(=O)N1C [Compound 487]	2500
C[C@@H]1C(=O)N[C@H](Cc2c[nH]cn2)C(=O)NCCCc2ccc(F)cc2OCCN[C@@H](C2CC2)C(=O)N1C [Compound 493]	2700
C[C@@H]1C(=O)N[C@H](Cc2ccncc2)C(=O)NCCCc2ccc(F)cc2OCCN[C@@H](C2CC2)C(=O)N1C [Compound 495]	2700
C[C@@H]1C(=O)N[C@H](Cc2cscn2)C(=O)NCCCc2ccc(F)cc2OCCN[C@@H](C2CC2)C(=O)N1C [Compound 496]	2700
C[C@@H]1CN[C@@H](C2CC2)C(=O)N(C)[C@H](C)C(=O)N[C@H](Cc2ccc(C(N)=O)cc2)C(=O)NCCCc2ccccc2O1 [Compound 498]	580
